Results from patent publication US20080104718A1, “Transgenic Non-Human Animal Models of Ischemia-Reperfusion Injury and Uses Thereof” (UNIVERSITY OF ROCHESTER, priority 2004, published 2008).

What was measured:
p90RSK = p90RSK in vitro kinase assay on heart lysates of STZ-injected mice; format: in vivo, mouse
Procedure: Heart powder was homogenized with 3 vol of lysis buffer and centrifuged at 14,000 g (4° C. for 30 min), and protein concentration were determined. p90RSK was immunoprecipitated through the incubation of 1000 μg protein for each sample with 3 μl of the rabbit polyclonal anti-p90RSK (Santa Cruz, Santa Cruz, Calif.) antibody for 3 hrs, the addition of 40 μl of a 1:1 slurry of protein A/Sepharose beads to the extract/antibody mixture, and then incubation for 1 hour at 4° C. This complex was washed, twice each, in cell lysis buffer described above, LiCl buffer (500 mM LiCl 100 mM Tris-HCl (pH 7.6), 0.1% Triton X-100, 1 mM DTT) and wash buffer (20 mM HEPES, pH 7.2, 2 mM EGTA, 100 μM Na3VO4, 10 mM MgCl2, 1 mM DTT, 0.1% Triton X-100). After the final wash and pelleting, S6 kinase substrate peptide was used to determine p90RSK kinase activity, as previously described (Cavet et al., “14-3-3beta is a p90 Ribosomal S6 Kinase (RSK) Isoform 1-Binding Protein That Negatively Regulates RSK Kinase Activity,” J Biol Chem 278(20):18376-18383 (2003), which is hereby incorporated by reference in its entirety). The in vitro kinase assay was performed according to manufacture's protocol using a long S6 kinase substrate peptide (Upstate) to determine radiolabeled phosphate incorporation by scintillation counter. […]

PRECE = test: Relative quantitative RT-PCR of PRECE mRNA in hearts of STZ-injected mice; format: in vivo, mouse; details: STZ injection, NLC mice, after 2 weeks
Procedure: Total RNA isolation, first-strand cDNA synthesis, and relative quantitative reverse transcription-polyinerase chain reaction (RT-PCR) using Ambion's Competimer technology were performed as we described (Aizawa et al., “Role of Phosphodiesterase 3 in NO/cGMP-Mediated Anti-inflammatory Effects in Vascular Smooth Muscle Cells,” Circ Res 93(5):406-413 (2003), which is hereby incorporated by reference in its entirety). Ambion's competimer technology allows one to modulate the amplification of 18S rRNA in the same linear range as the RNAs under study when amplified under the same condition. The following primers were used for PCR analysis: […]

[1] = Fasting blood glucose in STZ-induced diabetic mice; format: in vivo, mouse; details: 2 weeks after STZ injection (vehicle 107±8 mg/dl)
Text: After a 6 hrs fast, basal blood samples were colleted from the tip of the tail. All blood samples were immediately measured for glucose using Prestige IQ, Blood Glucose Monitoring System (Home Diagnosis, Inc, Ft. Lauderdale, Fla.).
Previously, it was reported that PKCP activation is critical in H2O2-mediated p90RSK activation. […] Since the critical role of PKCP activation in diabetes has been extensively studied, it was investigated whether p90RSK is activated in Streptozotocin (STZ)-induced hyperglycemic mice. The current study used STZ-induced diabetic mice, a known useful model for the study of diabetes (Aizawa-Abe et al., “Pathophysiological Role of Leptin in Obesity-related Hypertension,” J Clin Invest 105(9):1243-1252 (2000), which is hereby incorporated by reference in its entirety).

NHE1 [2] = target: T1, NHE1 (Rattus norvegicus, UniProt P26431); test: NHE1 activity (rate of pHi recovery after acid load, BCECF-AM) in neonatal rat cardiomyocytes; format: cell-based; details: 100 μM H2O2
T1 construct: Primary cultures of cardiac myocytes were prepared from ventricles of 1 to 3-day-old neonatal Wistar rats; endogenous in cells; host or cells: primary neonatal Wistar rat ventricular cardiomyocytes, transduced with Ad.LacZ or Ad.DN-RSK; NHE1 itself not transfected
Procedure: Primary cultures of cardiac myocytes were prepared from ventricles of 1 to 3-day-old neonatal Wistar rats (Akimoto et al., “Heparin and Heparin Sulfate Block Angiotensin II-Induced Hypertrophy in Cultured Neonatal Rat Cardiomyocytes. A possible Role of Intrinsic Heparin-Like Molecules in Regulation of Cardiomyocyte Hypertrophy,” Circulation 93:810-816 (1996), which is hereby incorporated by reference in its entirety). Briefly, cells were dissociated by collagenase II (Worthington Biochem, NJ) from the ventricles and plated at a density of 1×10^5 cells/cm^2 on 25 mm collagen-coated coverslips in Dulbecco's modified Eagle's medium (DMEM) with 10% fetal bovine serum and 10% horse serum. After 6 hrs of plating the isolated cardiomyocytes, 10 μM cytosine arabinoside (Ara C) was added and the cells were cultured 24 hrs, after which the culture medium was changed to DMEM with 10 μM Ara C in 10% fetal bovine serum.
Isolated neonatal cardiomyocytes were cultured on 25 mm glass coverslips. The intracellular pH indicator BCECF-AM was incubated with DMEM without FBS for 30 min at 37° C. (Ozkan et al., “A Rapid Method for Measuring Intracellular pH Using BCECF-AM,” Biochem Biophys Acta 1572: 143-148 (2002), which is hereby incorporated by reference in its entirety). […] BCECF-AM was excited at 490 and 440 nm, and the emission fluorescence recorded at 500 nm. […]

[3] = tested on: isolated heart from WT-p90RSK-Tg mice and non-transgenic littermate control (NLC) mice; test: Cardiac damage: CK and LDH release from the isolated heart after ischemia/reperfusion; set-up: species or system mouse; details: captopril 50 μM pretreatment
Procedure: Creatine kinase (CK) and lactate dehydrogenase (LDH) were measured by the University of Rochester, Department of Clinical Chemistry, and reported in clinical indices (units/L) as means ±S.D.
For isolated heart from WT-p90RSK-Tg mice and non-transgenic littermate control (NLC) mice were studied using Langendorff preparation. Animals were anaesthetized with ketamine (50 mg/kg) and xylazine (2.5 mg/kg), i.p., and heparinized (5000 U/kg), i.p., to protect the heart against microthrombi. The chest was opened at the sternum and the heart, after cannulation with a 23 G phalanged stainless steel cannula, quickly removed. The heart was retrogradely perfused through the aorta in a non-circulating Langendorff apparatus with KH buffer (118 mM NaCl, 4.7 mM KCl, 1.2 mM MgSO4, 1.2 mM KH2PO4, 2.5 mM CaCl2, 25 mM NaHCO3, 0.5 mM Na-EDTA and 11 mM glucose) at a constant pressure of 80 mmHg. The buffer was saturated with 95% O2/5% CO2 (v/v, pH 7.4, 37° C.) for 50 min. A homemade water-filled balloon was inserted into the left ventricle through the left atrium and was adjusted to a left ventricular end-diastolic pressure of 5 mmHg during initial equilibration. The distal end of the catheter was connected to an ETH-200 Bridge Amplifier (CB Sciences, Inc) and PowerLab/200 (AD Instruments) data acquisition system via a pressure transducer (DELTRAN II, Utah Medical Products, Inc., Midvale, Utah). […]

NHE1 [4] = target: NHE1 (Homo sapiens, UniProt P19634); details: cited from earlier work; for mortality in patients experiencing myocardial infarction: clinical trials GUARDIAN and ESCAMI
H9c2 cells = test: Anoxia/reoxygenation (A/R)-induced apoptosis in transfected H9c2 cells (TUNEL); format: cell-based, rat
Text: Ad.LacZ (LACZ gene in an adenoviral vector) and Ad.DN-RSK were transduced into neonatal rat cardiomyocytes at varying MOI, as shown in FIG. 1. There was a concentration-dependent expression of DN-RSK (Fire 1) with expression greater than endogenous RSK at 100 MOI. WT-RSK, WT-NHE1, and NHE S703A cDNAs were inserted into pLL3.7-IRES-EGFP to make a pLL3.7-WT-RSK-IRES-EGFP expression vector. These vectors were transfected into H9c2 rat embryonic myoblasts using lipofectamine 2000 (Invitrogen, Carlsbad, Calif.). Cells were cultured for 24 hr to allow sufficient protein expression, then cells were exposed to anoxia. Cells were placed for 12 hr in the anoxia chamber (5% CO2 and 95% N2) and after 24 hr, reoxygenation was performed by changing the medium and placing cells in an air incubator (5% CO2 and 95% air). After 24 hr cell death was detected by TUNEL and by cell death detection ELISA kit (Roche Applied Sciences, Indianapolis, Ind.). Only transfected cells identified by EGFP expression were counted to compare the effects of vector alone (pLL3.7-IRES-EGFP) vs. WT-RSK, WT-NHE1 and MHE1-S703A (pLL3.7-WT-RSK-IRES-EGFP, pLL3.7-WT-NHE1-IRES-EGFP and pLL3.7-NHE1-S703A-IRES-EGFP).

Sequence of NHE1 (Homo sapiens, UniProt P19634) (P19634 whole entry): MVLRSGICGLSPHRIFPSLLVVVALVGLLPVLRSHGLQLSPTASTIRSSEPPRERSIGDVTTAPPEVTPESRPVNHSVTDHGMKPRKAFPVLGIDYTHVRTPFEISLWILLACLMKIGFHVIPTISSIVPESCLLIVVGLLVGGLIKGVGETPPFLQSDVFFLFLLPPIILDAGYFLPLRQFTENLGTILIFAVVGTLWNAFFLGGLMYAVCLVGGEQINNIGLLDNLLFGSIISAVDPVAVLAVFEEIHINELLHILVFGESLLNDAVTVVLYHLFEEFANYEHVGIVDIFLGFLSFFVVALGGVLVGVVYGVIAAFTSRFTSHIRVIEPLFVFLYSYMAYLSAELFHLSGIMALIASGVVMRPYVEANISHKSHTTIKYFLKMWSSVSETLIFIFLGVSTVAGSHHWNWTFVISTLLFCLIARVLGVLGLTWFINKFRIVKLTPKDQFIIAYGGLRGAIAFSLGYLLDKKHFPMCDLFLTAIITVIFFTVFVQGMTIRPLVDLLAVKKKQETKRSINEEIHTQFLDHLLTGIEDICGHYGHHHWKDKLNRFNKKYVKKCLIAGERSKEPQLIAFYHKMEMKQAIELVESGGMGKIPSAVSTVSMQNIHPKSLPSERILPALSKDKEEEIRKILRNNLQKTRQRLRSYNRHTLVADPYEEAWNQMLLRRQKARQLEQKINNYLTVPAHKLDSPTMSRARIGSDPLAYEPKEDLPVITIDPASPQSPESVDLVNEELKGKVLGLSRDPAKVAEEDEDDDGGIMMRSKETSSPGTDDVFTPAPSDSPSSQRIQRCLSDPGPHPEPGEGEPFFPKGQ
T1 sequence (P26431 whole entry): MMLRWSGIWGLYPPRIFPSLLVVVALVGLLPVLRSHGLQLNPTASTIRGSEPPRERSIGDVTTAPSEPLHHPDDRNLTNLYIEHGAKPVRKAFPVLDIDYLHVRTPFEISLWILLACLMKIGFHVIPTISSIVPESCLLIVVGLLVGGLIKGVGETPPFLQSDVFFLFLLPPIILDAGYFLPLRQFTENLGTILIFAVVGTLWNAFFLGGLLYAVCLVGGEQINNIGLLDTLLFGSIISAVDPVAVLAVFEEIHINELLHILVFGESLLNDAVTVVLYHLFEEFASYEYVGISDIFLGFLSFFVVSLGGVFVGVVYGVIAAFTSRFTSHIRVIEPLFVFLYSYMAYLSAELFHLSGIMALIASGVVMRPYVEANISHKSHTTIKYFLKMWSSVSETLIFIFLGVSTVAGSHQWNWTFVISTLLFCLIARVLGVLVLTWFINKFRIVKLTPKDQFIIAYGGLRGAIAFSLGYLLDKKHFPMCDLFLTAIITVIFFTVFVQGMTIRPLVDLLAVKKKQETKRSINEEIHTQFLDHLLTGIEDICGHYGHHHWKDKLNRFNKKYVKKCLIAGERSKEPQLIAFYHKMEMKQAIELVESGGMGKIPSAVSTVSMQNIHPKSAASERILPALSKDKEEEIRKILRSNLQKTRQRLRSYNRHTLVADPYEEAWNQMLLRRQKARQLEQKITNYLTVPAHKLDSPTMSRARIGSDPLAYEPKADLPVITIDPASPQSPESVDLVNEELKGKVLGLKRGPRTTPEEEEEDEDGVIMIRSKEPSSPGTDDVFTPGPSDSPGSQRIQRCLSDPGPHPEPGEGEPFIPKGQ

In the case of `CN(N=O)C(=O)N[C@H]1C(O)O[C@H](CO)[C@@H](O)[C@@H]1O` (mixture of isomers) [STZ, Streptozotocin], the “p90RSK activation (in vitro kinase assay)” value (p90RSK; DN-p90RSK-Tg mice + STZ) is reported as 8009±797 cpm, the “p90RSK activation (in vitro kinase assay)” value (p90RSK; NLC mice + STZ) is reported as 12991±1810 cpm and the “PRECE mRNA expression in heart” value (PRECE) is reported as “increased”. For the same compound, the “fasting blood glucose level” value [1] was 224 ± 5 mg/dL.
In the case of `OO` [H2O2], the “increase of NHE1 activity” value (NHE1 [2]; LacZ expressing cardiomyocytes) is reported as 3 fold and the NHE1 activity (NHE1 [2]; LacZ expressing cardiomyocytes (basal 0.16±0.02)) is reported as 0.49±0.13 pHi/min.
With `C[C@H](CS)C(=O)N1CCC[C@H]1C(=O)O` [captopril] the “release of CK and LDH” value ([3]; NLC hearts, 40 min global ischemia and 25 min reperfusion) was “no beneficial effect” and the “release of cardiac enzymes (CK and LDH)” value ([3]; WT-p90RSK-Tg hearts, 20 min ischemia and 25 min reperfusion) was “significantly reduced”.
For `CC(C)c1ccc(C(=O)NC(=N)N)cc1S(C)(=O)=O` [cariporide], the “mortality in patients experiencing myocardial infarction” value (NHE1 [4]) is listed as “no significant reduction in mortality” and the “improvement in LV function” value (NHE1 [4]; subgroup of patients who underwent coronary artery bypass grafting) is listed as 25%.
With `CCN(c1nc(N)c(C(=O)NC(=N)N)nc1Cl)C(C)C` [EIPA] the apoptosis (H9c2 cells; A/R + NHE-WT transfected H9c2 cells + EIPA) was 39±4% and the apoptosis (H9c2 cells; EIPA 5 μM + A/R (12 hr/24 hr) + WT-RSK transfected H9c2 cells) was 29.9±5.2%.
In the case of `Cc1cc(-n2cccc2)c(S(C)(=O)=O)cc1C(=O)NC(=N)N` [eniporide], the “mortality in patients experiencing myocardial infarction” value (NHE1 [4]) is listed as “no significant reduction in mortality”.
